From ChEMBL document CHEMBL1811888, “Synthesis, biological activity and HPLC validation of 1,2,3,4-tetrahydroacridine derivatives as acetylcholinesterase inhibitors” (Eur J Med Chem, 2011)

Assays:
Cholinesterase = Cholinesterase (Homo sapiens, UniProt P06276)
Description: Inhibition of BChE by Ellman's method

Acetylcholinesterase = Acetylcholinesterase (Homo sapiens, UniProt P22303); assay: Inhibition of AChE by Ellman's method
Chain of Acetylcholinesterase (P22303 whole entry): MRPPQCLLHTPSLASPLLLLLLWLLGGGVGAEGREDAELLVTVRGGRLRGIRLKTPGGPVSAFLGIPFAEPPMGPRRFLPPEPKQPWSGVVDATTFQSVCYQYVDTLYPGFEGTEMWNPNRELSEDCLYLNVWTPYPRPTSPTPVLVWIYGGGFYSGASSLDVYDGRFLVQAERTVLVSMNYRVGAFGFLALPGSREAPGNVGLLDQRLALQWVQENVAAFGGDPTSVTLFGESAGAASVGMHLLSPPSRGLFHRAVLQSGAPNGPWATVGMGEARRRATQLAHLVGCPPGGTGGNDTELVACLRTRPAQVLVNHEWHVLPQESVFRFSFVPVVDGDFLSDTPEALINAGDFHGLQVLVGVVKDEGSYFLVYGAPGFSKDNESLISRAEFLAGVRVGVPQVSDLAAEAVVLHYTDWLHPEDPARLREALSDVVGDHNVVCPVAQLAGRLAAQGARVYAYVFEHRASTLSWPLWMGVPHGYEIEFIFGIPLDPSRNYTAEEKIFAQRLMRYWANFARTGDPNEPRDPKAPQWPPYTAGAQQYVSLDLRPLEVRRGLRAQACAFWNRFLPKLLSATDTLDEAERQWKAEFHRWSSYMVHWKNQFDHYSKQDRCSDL

Chain of Cholinesterase (P06276 whole entry): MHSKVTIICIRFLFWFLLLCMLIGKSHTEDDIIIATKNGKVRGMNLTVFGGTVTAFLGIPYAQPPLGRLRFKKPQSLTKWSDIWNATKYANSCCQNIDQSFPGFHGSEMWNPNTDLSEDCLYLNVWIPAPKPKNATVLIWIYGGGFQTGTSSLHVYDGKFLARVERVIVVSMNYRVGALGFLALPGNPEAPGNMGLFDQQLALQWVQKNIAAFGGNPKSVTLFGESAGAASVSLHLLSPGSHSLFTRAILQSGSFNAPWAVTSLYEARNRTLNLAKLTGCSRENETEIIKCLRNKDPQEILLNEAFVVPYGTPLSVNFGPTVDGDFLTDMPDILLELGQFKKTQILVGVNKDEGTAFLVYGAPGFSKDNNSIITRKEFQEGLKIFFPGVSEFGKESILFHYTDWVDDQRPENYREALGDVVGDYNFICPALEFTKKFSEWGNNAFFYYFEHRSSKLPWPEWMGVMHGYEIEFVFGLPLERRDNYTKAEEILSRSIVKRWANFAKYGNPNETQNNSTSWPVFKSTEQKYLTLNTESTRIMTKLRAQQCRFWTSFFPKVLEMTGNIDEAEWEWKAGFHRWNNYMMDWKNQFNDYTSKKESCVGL

Row | Structure (SMILES) | IC50 (Cholinesterase) [nM] | IC50 (Acetylcholinesterase) [nM]
1 | O=C(NCCNc1c2c(nc3ccccc13)CCCC2)c1ccc(F)cc1 | 0.0449 | 0.815
2 | O=C(NCCCNc1c2c(nc3ccccc13)CCCC2)c1ccc(F)cc1 | 0.0212 | 0.809
3 | O=C(NCCCCNc1c2c(nc3ccccc13)CCCC2)c1ccc(F)cc1 | 0.0354 | 0.784
